Assay results as given in patent publication US20260335265A1, “ANTICANCER COMPOSITION COMPRISING MALATE METAL SALT” (BIOSOLYX, priority 2022, published 2026).

Experiments:
[1] = tested on: NAD^+ in liver cancer (HepG2), breast cancer (MDA-MB-231), or lung cancer (H1975) cells; assay: NAD^+ levels in treated cancer cells (NAD^+ assay kit); assay type: cell-based; conditions: HepG2, MDA-MB-231, H1975 cells, CaMal 5 mM, CaMal2 2.5 mM, CaMal-DCA 1 mM, 48 hours, vs untreated controls, p<0.001 (FIG. 2)
Protocol: 1×10^6 liver cancer (HepG2), breast cancer (MDA-MB-231), or lung cancer (H 1975) cells were treated with CaMal of 5 mM, CaMal2 of 2.5 mM, or CaMal-DCA of 1 mM for 48 hours, respectively. Then, NAD^+ levels were then analyzed according to the method of Abcam's NAD^+ assay kit.

[2] = tested on: liver cancer (HepG2) cells; assay: Tumor growth inhibition in liver cancer xenograft mice; assay type: in vivo, Athymic Balb/c nude mice; conditions: 80 mg/kg orally five times a week; 30 days; vs untreated controls; p<0.001 (FIG. 11)
Protocol: 1×10^7 liver cancer (HepG2) cells were implanted with Athymic Balb/c nude mice and when they grew to approximately 200 mm^3, CaMal2 of 80 mg/kg was administered orally five times a week to observe tumor growth for 30 days.

[3] = tested on: pancreatic cancer (Aspc-1) cells; assay: Cancer cell survival rate (MTT reagent, absorbance); assay type: cell-based; conditions: 0.5, 1, 2.5, or 5 mM, 96 hours, p<0.001 vs lower-concentration groups (FIGS. 5, 6)
Protocol: (§1) 3×10^3 kidney cancer (Caki-1) or pancreatic cancer (Aspc-1) cells were incubated for 24 hours and then treated with CaMal2 of 0.5, 1, 2.5, or 5 mM and incubated for 96 hours again. Then, 3-(4,5-dimethylthiazol-2-yl)-2,5-diphenyltetrazolium bromide reagent of 10 μl was added to each well and reacted for 1 hour. After removing the reagent at the end of the reaction, DMSO 200 of μl was added to each well and the absorbance was measured to confirm the survival rate of the cells.
(§2) 3×10^3 liver cancer (HepG2), lung cancer (H1975), pancreatic cancer (Aspc-1), or breast cancer (MDA-MB-231) cells were cultured for 24 hours and then treated with CaMal-DCA of 0.5, 1, 2.5, or 5 mM and incubated for another 96 hours. Then, 3-(4,5-dimethylthiazol-2-yl)-2,5-diphenyltetrazolium bromide reagent of 10 μl was added to each well and reacted for 1 hour. After removing the reagent at the end of the reaction, DMSO of 200 μl was added to each well and the absorbance was measured to confirm the survival rate of the cells.

[4] = tested on: kidney cancer (Caki-1) cells; assay: as above; assay type: cell-based; conditions: 0.5, 1, 2.5, or 5 mM, 96 hours, p<0.001 vs lower-concentration groups (FIG. 5)
Protocol: as §1

[5] = tested on: pancreatic cancer (Aspc-1) cells; assay: Tumor growth inhibition in pancreatic cancer xenograft mice; assay type: in vivo, Athymic Balb/c nude mice; conditions: 20 mg/kg subcutaneously twice a week; 30 days; vs untreated controls; p<0.001 (FIG. 10)
Protocol: 1×10^7 pancreatic cancer (Aspc-1) cells were implanted with Athymic Balb/c nude mice and when they grew to approximately 200 mm^3, CaMal of 20 mg/kg was administered subcutaneously twice a week to monitor tumor growth for 30 days.

[6] = tested on: Malic enzyme 2 (ME2); assay: Malic enzyme 2 (ME2) level by ELISA in treated cancer cells; assay type: cell-based
Protocol: (§3) 1×10^6 liver cancer (HepG2), breast cancer (MDA-MB-231), or lung cancer (H1975) cells were treated with calcium malate (CaMal) of 5 mM, calcium dimalate (CaMal2) of 2.5 mM, or calcium malate-dichloroacetic acid (CaMal-DCA) of 1 mM for 48 hours, respectively. After that, proteins were then extracted using RIPA buffer. Biorbyt's Malate dehydrogenase 2 (MDH2), Malic enzyme 2 (ME2) and Malic enzyme 3 (ME3) ELISA assay kits were utilized to quantitatively analyze the respective factors in the above extracted proteins.

[7] = tested on: cancer cells; assay: Death of cancer cells (summary statement); assay type: cell-based; conditions: summary of FIGS. 4, 5, 10, 11 (calcium malate, calcium di-malate) and FIGS. 6, 12 (calcium malate and DCA)
Protocol: (§4) 3×10^3 colon cancer (HCT-116) or brain cancer (U-87MG) cells were incubated for 24 hours and then treated with CaMal of 0.5, 1, 2.5, or 5 mM and incubated for another 96 hours. Then, 3-(4,5-dimethylthiazol-2-yl)-2,5-diphenyltetrazolium bromide reagent of 10 μl was added to each well and reacted for 1 hour. After removing the reagent at the end of the reaction, DMSO of 200 μl was added to each well and then the absorbance was measured to confirm a survival rate of the cells.
as §1
as §2, with “Then, 3-(4,5-dimethylthiazol-2-yl)-2,5-diphenyltetrazolium bromide reagent of 10 μl was added to each well and reacted for 1 hour.” left out

[8] = tested on: brain cancer (U-87MG) cells; assay: Cancer cell survival rate (MTT reagent, absorbance); assay type: cell-based; conditions: 0.5, 1, 2.5, or 5 mM, 96 hours, p<0.001 vs 0.5, 1, and 2.5 mM groups (FIG. 4)
Protocol: as §4

[9] = tested on: colon cancer (HCT-116) cells; assay: as above; assay type: cell-based; conditions: 0.5, 1, 2.5, or 5 mM, 96 hours, p<0.001 vs 0.5, 1, and 2.5 mM groups (FIG. 4)
Protocol: as §4

[10] = tested on: Malate dehydrogenase 2 (MDH2); assay: Malate dehydrogenase 2 (MDH2) level by ELISA in treated cancer cells; assay type: cell-based
Protocol: as §3

[11] = tested on: beta cells; assay: Insulin levels in culture medium of pancreatic beta cells; assay type: cell-based; conditions: CaMal 5 mM or CaMal2 2.5 mM, 48 hours
Protocol: 1×10^6 beta cells were treated with CaMal of 5 mM or CaMal2 of 2.5 mM for 48 hours in the absence or presence of glucose of 5 mM, respectively, and a culture medium was harvested. The medium was placed in a spin concentrator (Corning, Inc.) and run at 7,500 g for 10 minutes to obtain insulin assay samples. The samples were quantitatively analyzed using an assay kit manufactured by Enzo company.

[12] = tested on: Malic enzyme 3 (ME3); assay: Malic enzyme 3 (ME3) level by ELISA in treated cancer cells; assay type: cell-based
Protocol: as §3

[13] = HepG2, MDA-MB-231, H1975 cells, CaMal 5 mM, CaMal2 2.5 mM, CaMal-DCA 1 mM, 48 hours, vs untreated controls, p<0.001 (FIG. 1)
[14] = various cancer cell lines (FIG. 1), stated as activity

| SMILES | levels of NAD^+ ([1]; listed as calcium di-malate) | tumor size [2] | survival rate of the cancer cells [3] | survival rate of the cancer cells [4] | tumor size [5] | amount of ME2 [6, 13] | activity of ME2 / malic enzymes [6, 14] | death of cancer cells [7] | survival rate of the cancer cells [8] | survival rate of the cancer cells [9] | amount of MDH2 [10, 13] | activity of MDH2 [10, 14] | insulin levels ([11]; absence of glucose, p<0.001 vs Control (No-glucose) (FIG. 3)) | insulin levels ([11]; presence of glucose 5 mM, p<0.001 vs Control (Glucose) (FIG. 3)) | amount of ME3 [12, 13] | activity of ME3 / malic enzymes [12, 14] | levels of NAD^+ [1] | levels of NAD^+ ([1]; listed as calcium malate) |
| --- | --- | --- | --- | --- | --- | --- | --- | --- | --- | --- | --- | --- | --- | --- | --- | --- | --- | --- |
| O=C(O)CC(O)C(=O)O (stereo not drawn) [CaMal2, calcium dimalate] | dramatic exhaustion of NAD^+ | tumor size became reduced visually and clearly | decreased the survival rate of the cancer cells in a concentration-dependent manner | decreased the survival rate of the cancer cells in a concentration-dependent manner | – | – | – | – | – | – | – | – | – | – | – | – | – | – |
| O=C(O)CC(O)C(=O)O (stereo not drawn) [CaMal, calcium malate] | – | – | – | – | tumor size became reduced visually and clearly | significant increase | significant increase | death of cancer cells | concentration-dependent manner decrease in a survival rate of the cancer cells | concentration-dependent manner decrease in a survival rate of the cancer cells | significant increase | significant increase | significant increase in insulin levels | significant increase in insulin levels | significant increase | significant increase | significant decrease | dramatic exhaustion of NAD^+ |
